Laboratory results as given in the supplement of paper PMC10733146.

Assays:
Test in all cases: viability relative to DMSO control (fraction); higher = less drug effect (more viable cells)
Settings in all cases: 48 h
[1] = tested on: primary MCL patient cells (S053)
Method in brief: (§1)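 The cells were primary mononuclear tumour cells, either fresh or cryopreserved, isolated by Ficoll from blood or bone marrow or derived from processed lymph node. Each well of a 384-well plate received 4 × 10^4 cells onto compounds pre-plated at five concentrations, with one well per concentration. The medium was RPMI-1640 with penicillin/streptomycin, L-glutamine and human serum, and plates stood at 37 °C and 5% CO2 for 48 h. Viability is reported as CellTiter-Glo luminescence relative to the median of 16 inner DMSO wells.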

[2] = tested on: primary DLBCL patient cells (S082)
Method in brief: as §1

[3] = tested on: primary T-PLL patient cells (S008)
Method in brief: as §1

[4] = tested on: primary AML patient cells (S009)
Method in brief: as §1

[5] = tested on: primary BL patient cells (S005)
Method in brief: as §1

[6] = tested on: primary AML patient cells (S060)
Method in brief: as §1

[7] = tested on: primary FL patient cells (S087)
Method in brief: as §1

[8] = tested on: primary MCL patient cells (S068)
Method in brief: as §1

[9] = tested on: primary ALL patient cells (S088)
Method in brief: as §1

[10] = tested on: primary AML patient cells (S079)
Method in brief: as §1

[11] = tested on: primary MCL patient cells (S063)
Method in brief: as §1

[12] = tested on: primary FL patient cells (S022)
Method in brief: as §1

[13] = tested on: primary B-PLL patient cells (S016)
Method in brief: as §1

[14] = tested on: primary ALL patient cells (S048)
Method in brief: as §1

[15] = tested on: primary CLL patient cells (S031)
Method in brief: as §1

[16] = tested on: primary MCL patient cells (S041)
Method in brief: as §1

[17] = tested on: primary AML patient cells (S072)
Method in brief: as §1

[18] = tested on: primary AML patient cells (S071)
Method in brief: as §1

[19] = tested on: primary AML patient cells (S056)
Method in brief: as §1

CC#CC(=O)N1CCC[C@H]1c1nc(-c2ccc(C(=O)Nc3ccccn3)cc2)c2c(N)nccn12 [Acalabrutinib (ACP-196)]
viability ([1]; 0.008 µM): 0.711 | viability ([1]; 0.04 µM): 0.636 | viability ([1]; 0.2 µM): 0.656 | viability ([1]; 1 µM): 0.587 | viability ([1]; 5 µM): 0.66 | viability ([2]; 0.008 µM): 0.804 | viability ([2]; 0.04 µM): 0.675 | viability ([2]; 0.2 µM): 0.559 | viability ([2]; 1 µM): 0.462 | viability ([2]; 5 µM): 0.447 | viability ([3]; 0.008 µM): 1.11 | viability ([3]; 0.04 µM): 1.01 | viability ([3]; 0.2 µM): 1.08 | viability ([3]; 1 µM): 0.989 | viability ([3]; 5 µM): 1.13 | viability ([4]; 0.008 µM): 1.19 | viability ([4]; 0.04 µM): 1.11 | viability ([4]; 0.2 µM): 1.16 | viability ([4]; 1 µM): 1.09 | viability ([4]; 5 µM): 1.12 | viability ([5]; 0.008 µM): 1.07 | viability ([5]; 0.04 µM): 1.15 | viability ([5]; 0.2 µM): 1.05 | viability ([5]; 1 µM): 1.17 | viability ([5]; 5 µM): 1.08 | viability ([6]; 0.008 µM): 1.08 | viability ([6]; 0.04 µM): 1.06 | viability ([6]; 0.2 µM): 1.04 | viability ([6]; 1 µM): 1.05 | viability ([6]; 5 µM): 1.05 | viability ([7]; 0.008 µM): 1.08 | viability ([7]; 0.04 µM): 1.03 | viability ([7]; 0.2 µM): 1.07 | viability ([7]; 1 µM): 0.994 | viability ([7]; 5 µM): 1.04 | viability ([8]; 0.008 µM): 0.878 | viability ([8]; 0.04 µM): 0.805 | viability ([8]; 0.2 µM): 0.788 | viability ([8]; 1 µM): 0.767 | viability ([8]; 5 µM): 0.785 | viability ([9]; 0.008 µM): 1.04 | viability ([9]; 0.04 µM): 1.04 | viability ([9]; 0.2 µM): 1.04 | viability ([9]; 1 µM): 1.02 | viability ([9]; 5 µM): 1.16 | viability ([10]; 0.008 µM): 0.948 | viability ([10]; 0.04 µM): 0.906 | viability ([10]; 0.2 µM): 0.859 | viability ([10]; 1 µM): 1.11 | viability ([10]; 5 µM): 0.965 | viability ([11]; 0.008 µM): 0.697 | viability ([11]; 0.04 µM): 0.328 | viability ([11]; 0.2 µM): 0.276 | viability ([11]; 1 µM): 0.246 | viability ([11]; 5 µM): 0.262 | viability ([12]; 0.008 µM): 1.1 | viability ([12]; 0.04 µM): 1.12 | viability ([12]; 0.2 µM): 1.11 | viability ([12]; 1 µM): 1.09 | viability ([12]; 5 µM): 1.05 | viability ([13]; 0.008 µM): 0.748 | viability ([13]; 0.04 µM): 0.627 | viability ([13]; 0.2 µM): 0.601 | viability ([13]; 1 µM): 0.549 | viability ([13]; 5 µM): 0.6 | viability ([14]; 0.008 µM): 1.05 | viability ([14]; 0.04 µM): 0.955 | viability ([14]; 0.2 µM): 0.975 | viability ([14]; 1 µM): 0.962 | viability ([14]; 5 µM): 1.03 | viability ([15]; 0.008 µM): 0.877 | viability ([15]; 0.04 µM): 0.817 | viability ([15]; 0.2 µM): 0.742 | viability ([15]; 1 µM): 0.722 | viability ([15]; 5 µM): 0.713 | viability ([16]; 0.008 µM): 1 | viability ([16]; 0.04 µM): 1 | viability ([16]; 0.2 µM): 0.859 | viability ([16]; 1 µM): 0.899 | viability ([16]; 5 µM): 0.855 | viability ([17]; 0.008 µM): 0.995 | viability ([17]; 0.04 µM): 0.971 | viability ([17]; 0.2 µM): 0.989 | viability ([17]; 1 µM): 0.941 | viability ([17]; 5 µM): 0.971 | viability ([18]; 0.008 µM): 1.06 | viability ([18]; 0.04 µM): 1.02 | viability ([18]; 0.2 µM): 1.01 | viability ([18]; 1 µM): 1.01 | viability ([18]; 5 µM): 0.994 | viability ([19]; 0.008 µM): 1.04 | viability ([19]; 0.04 µM): 1.55 | viability ([19]; 0.2 µM): 1.02 | viability ([19]; 1 µM): 0.929 | viability ([19]; 5 µM): 0.766
